From patent US6462045B1, “Method of treating pulmonary hypertension” (Orion Corporation, priority 1998, dated 2002)

Assays:
patients = experiment: Experiment 1: levosimendan infusion for 24 hrs in 95 patients, change in mean pulmonary artery pressure; format: in vivo, human; conditions: infusion 0.05, 0.1, 0.2, 0.4 and 0.6 μg/kg/min for 24 hrs, FIG. 1
Protocol: Levosimendan (LS) was administered by infusion (0.05-0.6 μg /kg/min) to totally 95 patients (n=14-23 per group) in amounts of 0.05, 0.1, 0.2, 0.4 and 0.6 μg/kg/min for 24 hrs. The change in the mean pulmonary artery pressure was determined.
------ is placebo, --O-- is vehicle, --[…]-- is dobutamine,
— is LS 0.05 μg/kg/min, —C— is LS 0.1 μg/kg/min, —□— is LS 0.2 μg/kg/min,
—⋄— is LS 0.4 μg/kg/min, —Δ— is LS 0.6 μg/kg/min

[1] = tested on: patient with pulmonary hypertension; experiment: Experiment 2: levosimendan infusion for 5.5 hrs in a patient with pulmonary hypertension, mean pulmonary artery pressure; format: in vivo, human
Protocol: Levosimendan was administered by infusion (0.1-0.4 μg/kg/min) to a patient with pulmonary hypertension in amounts of 0.1, 0.2 and 0.4 μg/kg/min for 5.5 hrs. At 0.25 h the infusion rate was 0.1 μg/kg/min, at 2.00 h the infusion rate was increased to 0.2 μg/kg/min and at 4.5 h the infusion rate was increased to 0.4 μg/kg/min. The change in the mean pulmonary artery pressure (MPAP) was determined.
Table 1. The change of mean pulmonary artery pressure (NPAP) during levosimendan infusion. 0.25 h infusion rate 0.1 μg/kg/min, 2.00 h infusion rate 0.2 μg/kg/min, 4.5 h infusion rate 0.4 μg/kg/min.

Compound: CC1CC(=O)NN=C1c1ccc(NN=C(C#N)C#N)cc1 (single isomer, unassigned; (-)) [levosimendan, (−)-[[4-(1,4,5,6-tetrahydro-4-methyl-6-oxo-3-pyridazinyl)phenyl]hydrazono]propanedinitrile]
- change in the mean pulmonary artery pressure (patients): able to significantly lower pulmonary artery pressure
- change in the mean pulmonary artery pressure (MPAP) ([1]; infusion 0.1, 0.2 and 0.4 μg/kg/min for 5.5 hrs, one patient with pulmonary hypertension): able to significantly lower pulmonary artery pressure
- MPAP ([1]; time 0 h (before the 0.1 μg/kg/min infusion rate at 0.25 h)): 41 mmHg
- MPAP ([1]; time 0.75 h, infusion rate 0.1 μg/kg/min): 42 mmHg
- MPAP ([1]; time 1.25 h, infusion rate 0.1 μg/kg/min): 42 mmHg
- MPAP ([1]; time 1.75 h, infusion rate 0.1 μg/kg/min): 39 mmHg
- MPAP ([1]; time 2.50 h, infusion rate 0.2 μg/kg/min): 34 mmHg
- MPAP ([1]; time 3.00 h, infusion rate 0.2 μg/kg/min): 35 mmHg
- MPAP ([1]; time 3.50 h, infusion rate 0.2 μg/kg/min): 35 mmHg
- MPAP ([1]; time 4.00 h, infusion rate 0.2 μg/kg/min): 32 mmHg
- MPAP ([1]; time 5.00 h, infusion rate 0.4 μg/kg/min): 27 mmHg
- MPAP ([1]; time 5.50 h, infusion rate 0.4 μg/kg/min): 29 mmHg
